Reference: US4481192A, “Acid-protease inhibiting peptide derivatives” (SANOFI, priority 1982, dated 1984)
Like-named read-outs stand apart in the source and are kept apart here. Non-standard residues stand in square brackets, D forms with d. Residues, ends and D or L forms follow the SMILES beside them. *: point of attachment. X1 = COC(=O)C[C@@H](O)[C@H](CC(C)C)N*; Benzenesulfonyl = O=S(=O)(c1ccccc1)*; Benzylsulfonyl = O=S(=O)(Cc1ccccc1)*; Sta = CC(C)C[C@H](N)[C@@H](O)CC(=O)O; Butanoyl(3,3-Me2) = CC(C)(C)CC(=O)*; Hydrocinnamoyl = O=C(CCc1ccccc1)*; X2 = O=C(NCCS(=O)(=O)*)OCc1ccccc1; Isovaleryl = CC(C)CC(=O)*; Nle = CCCC[C@H](N)C(=O)O; Nva = CCC[C@H](N)C(=O)O; Cbz = O=C(OCc1ccccc1)*; Boc = CC(C)(C)OC(=O)*

Experiments:
[1] = biological target: T1, human plasma renin activity (Homo sapiens, UniProt P00797); experiment: Inhibition of the human plasma renin activity (P.R.A.); format: biochemical; details: 37° C., pool of human plasma
T1 construct: the human plasma contain and the substrate: angiotensinogen, and the enzyme: renin; from tissue; host or cells: pool of human plasma
T1 sequence (P00797 67-406): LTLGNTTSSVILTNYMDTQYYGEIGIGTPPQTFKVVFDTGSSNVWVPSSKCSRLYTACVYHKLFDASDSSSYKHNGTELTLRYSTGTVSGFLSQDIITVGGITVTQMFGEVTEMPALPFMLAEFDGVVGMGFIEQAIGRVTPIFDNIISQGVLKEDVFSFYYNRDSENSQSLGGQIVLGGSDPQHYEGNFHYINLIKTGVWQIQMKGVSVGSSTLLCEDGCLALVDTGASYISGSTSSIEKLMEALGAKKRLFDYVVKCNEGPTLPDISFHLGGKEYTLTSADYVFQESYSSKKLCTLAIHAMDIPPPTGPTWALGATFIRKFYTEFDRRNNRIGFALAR
Description: The angiotensin I released during the reaction (the human plasma contain and the substrate: angiotensinogen, and the enzyme: renin) is measured by radioimmunological determination using a kit.
Of course, an inhibitor of the enzyme for conversion of the PMSF (phenylmethylsulphonyl fluoride) is added to the incubation medium.
Two types of experiments were carried out:
one at pH 6, which is the optimum pH for the enzyme reaction with human renin (maleate buffer, incubation: 30 minutes), and
the other at pH 7.4, which is the physiological pH (phosphate buffer, incubation: 60 minutes).
(§1) A 10^-3 M stock solution of the peptide is made up in a mixture containing equal volumes of a solution A (19 ml of methanol+1 ml of acetic acid) and a solution B (4 ml of methanol+2 ml of sodium hydroxide solution).
(§2) The subsequent dilutions of the peptide are then prepared in the appropriate buffer in accordance with the procedures described above.

[2] = biological target: porcine pepsin (Sus scrofa, UniProt P00791); experiment: Inhibition of porcine pepsin; format: biochemical; details: pH 2, substrate bovine haemoglobin, 37° C.
Description: The method used is that of TAKAAKI AOYAGI (J. Antibiotics, 24, pages 687-694, 1971). The substrate used is bovine haemoglobin and the enzyme is porcine pepsin.
0.5% strength haemoglobin is hydrolysed with pepsin (1 mcg/ml) at 37° C. in 0.02M KCl-HCl buffer at pH 2.
Preincubation takes place for 3 minutes, followed by incubation for 25 minutes. After precipitation of the proteins with 1.7M perchloric acid, the optical density of the supernatant is determined on a spectrophotometer at 280 nm.
The results are expressed as the percentage inhibition of the maximum optical density obtained in the absence of inhibitor. They are also expressed as an IC50.
as §1, §2

[3] = pH 6, maleate buffer, incubation 30 minutes, read-out: INHIBITION OF HUMAN P.R.A. (IC50) pH 6
[4] = pH 7.4, phosphate buffer, incubation 60 minutes, read-out: INHIBITION OF HUMAN P.R.A. (IC50) pH 7.4

Chain of porcine pepsin (P00791 60-385): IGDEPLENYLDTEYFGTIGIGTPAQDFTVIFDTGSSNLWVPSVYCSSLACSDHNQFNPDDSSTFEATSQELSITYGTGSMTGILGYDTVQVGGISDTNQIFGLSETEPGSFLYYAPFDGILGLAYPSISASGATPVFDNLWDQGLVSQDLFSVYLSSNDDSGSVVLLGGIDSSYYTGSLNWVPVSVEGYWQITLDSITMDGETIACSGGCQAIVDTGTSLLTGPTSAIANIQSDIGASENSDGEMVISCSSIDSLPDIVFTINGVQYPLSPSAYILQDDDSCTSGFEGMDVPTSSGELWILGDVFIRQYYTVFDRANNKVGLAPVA

COC(=O)C[C@H](O)[C@H](CC(C)C)NC(=O)[C@H](C)NC(=O)C[C@H](O)[C@H](CC(C)C)NC(=O)[C@H](CC(C)C)NC(=O)[C@H](Cc1ccccc1)NC(=O)CC(C)C [SR 41765, iVa--Phe--Leu--Sta--Ala--Sta--OMe] (Isovaleryl-FL[Sta]A[Sta]-OMe)
IC50 [1, 3]: 0.33 nM
IC50 [1, 4]: 75 nM
IC50 [2]: 8 nM

COC(=O)C[C@H](O)[C@H](CC(C)C)NC(=O)[C@H](C)NC(=O)C[C@H](O)[C@H](CC(C)C)NC(=O)CNC(=O)[C@H](Cc1ccccc1)NC(=O)CC(C)C [SR 42261, iVa--Phe--Gly--Sta--Ala--Sta--OMe] (Isovaleryl-FG[Sta]A[Sta]-OMe)
IC50 [1, 3]: 170 nM
IC50 [1, 4]: 4700 nM
IC50 [2]: 750 nM

CCCC[C@H](NC(=O)[C@H](Cc1ccccc1)NC(=O)CC(C)C)C(=O)N[C@@H](CC(C)C)[C@@H](O)CC(=O)N[C@@H](C)C(=O)N[C@@H](CC(C)C)[C@@H](O)CC(=O)O [SR 42128, iVa--Phe--Nle--Sta--Ala--Sta--OH] (Isovaleryl-F[Nle][Sta]A[Sta]-OH)
IC50 [2]: 19 nM

COC(=O)C[C@H](O)[C@H](CC(C)C)NC(=O)[C@H](C)NC(=O)C[C@H](O)[C@H](CC(C)C)NC(=O)[C@@H](NC(=O)[C@H](Cc1ccc(O)cc1)NC(=O)OCc1ccccc1)C(C)C [SR 41476, Z--Tyr--Val--Sta--Ala--Sta--OMe] (Cbz-YV[Sta]A[Sta]-OMe)
IC50 [1, 3]: 170 nM
IC50 [1, 4]: 2200 nM
IC50 [2]: 24 nM

CCC[C@H](NC(=O)[C@H](Cc1ccccc1)NC(=O)OC(C)(C)C)C(=O)N[C@@H](CC(C)C)[C@@H](O)CC(=O)N[C@@H](C)C(=O)N[C@@H](CC(C)C)[C@@H](O)CC(=O)OC [SR 41996, Boc--Phe--Nva--Sta--Ala--Sta--OMe] (Boc-F[Nva][Sta]A[Sta]-OMe)
IC50 [1, 3]: 0.0011 nM
IC50 [1, 4]: 51 nM

COC(=O)C[C@H](O)[C@H](CC(C)C)NC(=O)[C@H](C)NC(=O)C[C@H](O)[C@H](CC(C)C)NC(=O)[C@H](Cc1ccccc1)NC(=O)[C@H](Cc1ccccc1)NC(=O)CC(C)(C)C [SR 42256, t--BuAc--Phe--Phe--Sta--Ala--Sta--OMe] ({Butanoyl(3,3-Me2)}-FF[Sta]A[Sta]-OMe)
IC50 [1, 3]: 26 nM
IC50 [1, 4]: 480 nM
IC50 [2]: 27 nM

COC(=O)C[C@@H](O)[C@H](CC(C)C)NC(=O)[C@H](C)NC(=O)C[C@H](O)[C@H](CC(C)C)NC(=O)[C@H](Cc1ccccc1)NC(=O)[C@H](Cc1ccccc1)NC(=O)CC(C)C [SR 41766, iVa--Phe--Phe--Sta--Ala--isoSta--OMe] (Isovaleryl-FF[Sta]A-X1)
IC50 [1, 3]: 14 nM
IC50 [1, 4]: 420 nM
IC50 [2]: 58 nM

CC(C)C[C@H](NC(=O)[C@H](C)NC(=O)C[C@H](O)[C@H](CC(C)C)NC(=O)[C@H](Cc1ccccc1)NC(=O)[C@H](Cc1ccccc1)NC(=O)OCc1ccccc1)[C@@H](O)CC(=O)O [SR 41225, Z--Phe--Phe--Sta--Ala--Sta--OH] (Cbz-FF[Sta]A[Sta]-OH)
IC50 [1, 3]: 70 nM
IC50 [1, 4]: 1000 nM
IC50 [2]: 90 nM

CCC[C@H](NC(=O)[C@H](Cc1ccccc1)NC(C)=O)C(=O)N[C@@H](CC(C)C)[C@@H](O)CC(=O)N[C@@H](C)C(=O)N[C@@H](CC(C)C)[C@@H](O)CC(=O)OC [SR 41994, Ac--Phe--Nva--Sta--Ala--Sta--OMe] (Ac-F[Nva][Sta]A[Sta]-OMe)
IC50 [1, 3]: 0.76 nM
IC50 [1, 4]: 260 nM
IC50 [2]: 13 nM

COC(=O)C[C@H](O)[C@H](CC(C)C)NC(=O)[C@H](C)NC(=O)C[C@H](O)[C@H](CC(C)C)NC(=O)[C@H](Cc1ccccc1)NC(=O)[C@H](Cc1ccccc1)NC(=O)CCc1ccccc1 [SR 41768, C6 H5 CH2 CH2 CO--Phe--Phe--Sta--Ala--Sta--OMe] (Hydrocinnamoyl-FF[Sta]A[Sta]-OMe)
IC50 [1, 3]: 50 nM
IC50 [1, 4]: 1000 nM
IC50 [2]: 42 nM

CCC[C@H](NC(=O)[C@H](Cc1ccccc1)NC(=O)CC(C)C)C(=O)N[C@@H](CC(C)C)[C@@H](O)CC(=O)N[C@@H](C)C(=O)N[C@@H](CC(C)C)[C@@H](O)CC(=O)OC [SR 41995, iVa--Phe--Nva--Sta--Ala--Sta--OMe] (Isovaleryl-F[Nva][Sta]A[Sta]-OMe)
IC50 [1, 3]: 0.03 nM
IC50 [1, 4]: 42 nM
IC50 [2]: 16 nM

COC(=O)C[C@H](O)[C@H](CC(C)C)NC(=O)[C@H](C)NC(=O)C[C@H](O)[C@H](CC(C)C)NC(=O)[C@H](Cc1ccccc1)NC(=O)[C@H](Cc1ccccc1)NS(=O)(=O)Cc1ccccc1 [SR 41939, C6 H5 CH2 SO2 --Phe--Phe--Sta--Ala--Sta--OCH3] (Benzylsulfonyl-FF[Sta]A[Sta]-OMe)
IC50 [1, 3]: 17 nM
IC50 [1, 4]: 880 nM
IC50 [2]: 36 nM

COC(=O)C[C@H](O)[C@H](CC(C)C)NC(=O)[C@H](C)NC(=O)C[C@H](O)[C@H](CC(C)C)NC(=O)[C@H](Cc1ccccc1)NC(=O)[C@H](Cc1ccccc1)NC(=O)OCc1ccccc1 [SR 41320, Z--Phe--Phe--Sta--Ala--Sta--OMe] (Cbz-FF[Sta]A[Sta]-OMe)
IC50 [1, 3]: 17 nM
IC50 [1, 4]: 3500 nM
IC50 [2]: 30 nM

COC(=O)C[C@H](O)[C@H](CC(C)C)NC(=O)[C@H](C)NC(=O)C[C@H](O)[C@H](CC(C)C)NC(=O)[C@H](Cc1c[nH]cn1)NC(=O)[C@H](Cc1ccccc1)NS(=O)(=O)CCNC(=O)OCc1ccccc1 [SR 41748, Z--Tau--Phe--His--Sta--Ala--Sta--OCH3] (X2-FH[Sta]A[Sta]-OMe)
IC50 [1, 3]: 2.2 nM
IC50 [1, 4]: 110 nM
IC50 [2]: 620 nM

CC[C@H](C)[C@H](NC(=O)[C@H](Cc1ccccc1)NC(=O)OCc1ccccc1)C(=O)N[C@@H](CC(C)C)[C@@H](O)CC(=O)N[C@@H](C)C(=O)N[C@@H](CC(C)C)[C@@H](O)CC(=O)OC [SR 41477, Z--Phe--ILe--Sta--Ala--Sta--OMe] (Cbz-FI[Sta]A[Sta]-OMe)
IC50 [1, 3]: 35 nM
IC50 [1, 4]: 1000 nM
IC50 [2]: 38 nM

COC(=O)C[C@H](O)[C@H](CC(C)C)NC(=O)[C@H](C)NC(=O)C[C@H](O)[C@H](CC(C)C)NC(=O)[C@@H](NC(=O)[C@@H](Cc1ccccc1)NC(=O)OC(C)(C)C)C(C)C [SR 41377, Boc--(D)Phe--Val--Sta--Ala--Sta--OCH3] (Boc-[dF]V[Sta]A[Sta]-OMe)
IC50 [2]: 47 nM

CC(C)C[C@H](NC(=O)[C@H](C)NC(=O)C[C@H](O)[C@H](CC(C)C)NC(=O)[C@@H](NC(=O)[C@@H](Cc1ccccc1)NC(=O)OC(C)(C)C)C(C)C)[C@@H](O)CC(=O)O [SR 41491, Boc--(D)Phe--Val--Sta--Ala--Sta--OH] (Boc-[dF]V[Sta]A[Sta]-OH)
IC50 [1, 3]: 260 nM
IC50 [1, 4]: 4000 nM
IC50 [2]: 22 nM

COC(=O)C[C@H](O)[C@H](CC(C)C)NC(=O)[C@H](C)NC(=O)C[C@H](O)[C@H](CC(C)C)NC(=O)[C@H](Cc1c[nH]c2ccccc12)NC(=O)[C@H](Cc1ccccc1)NC(=O)OCc1ccccc1 [SR 41416, Z Phe--Trp--Sta--Ala--Sta--OMe] (Cbz-FW[Sta]A[Sta]-OMe)
IC50 [1, 3]: 80 nM
IC50 [1, 4]: 1400 nM
IC50 [2]: 65 nM

COC(=O)C[C@H](O)[C@H](CC(C)C)NC(=O)[C@H](C)NC(=O)C[C@H](O)[C@H](CC(C)C)NC(=O)[C@H](CCCCNC(=O)OCc1ccccc1)NC(=O)[C@H](Cc1ccccc1)NC(=O)CC(C)C [SR 42130, iVa--Phe--Lys(Z)--Sta--Ala--Sta--OMe] (Isovaleryl-FK(Cbz)[Sta]A[Sta]-OMe)
IC50 [1, 3]: 52 nM
IC50 [1, 4]: 2600 nM
IC50 [2]: 27 nM

COC(=O)C[C@H](O)[C@H](CC(C)C)NC(=O)[C@H](C)NC(=O)C[C@H](O)[C@H](CC(C)C)NC(=O)[C@H](Cc1ccccc1)NC(=O)[C@H](Cc1ccccc1)NS(=O)(=O)c1ccccc1 [SR 41938, C6 H5 SO2 --Phe--Phe--Sta--Ala--Sta--OCH3] (Benzenesulfonyl-FF[Sta]A[Sta]-OMe)
IC50 [1, 3]: 1.6 nM
IC50 [1, 4]: 440 nM
IC50 [2]: 63 nM

COC(=O)C[C@H](O)[C@H](CC(C)C)NC(=O)[C@H](C)NC(=O)C[C@H](O)[C@H](CC(C)C)NC(=O)[C@H](Cc1ccccc1)NC(=O)[C@@H](Cc1ccccc1)NC(=O)OC(C)(C)C [SR 41518, Boc--(D)Phe--Phe--Sta--Ala--Sta--OMe] (Boc-[dF]F[Sta]A[Sta]-OMe)
IC50 [1, 3]: 950 nM
IC50 [2]: 480 nM

COC(=O)C[C@H](O)[C@H](CC(C)C)NC(=O)[C@H](C)NC(=O)C[C@H](O)[C@H](CC(C)C)NC(=O)[C@H](C)NC(=O)[C@H](Cc1ccccc1)NC(=O)CC(C)C [SR 42258, iVa--Phe--Ala--Sta--Ala--Sta--OMe] (Isovaleryl-FA[Sta]A[Sta]-OMe)
IC50 [1, 3]: 9 nM
IC50 [1, 4]: 470 nM
IC50 [2]: 18 nM
